Source: the supplement of paper PMC10627819

Assays:
S. aureus DSM 20231 [1] = test: fitness (endpoint OD595 vs no drug) (fraction); higher = more growth
In short: (§1)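 Bacterial growth was followed in 384-well plates seeded at OD595 0.01, with 30 µl per well, or 55 µl for S. pneumoniae, in TSB, LB Lennox or CY at 37 °C. OD595 was read every 30 min for 14 h, and each reading had the first reading subtracted as background. Fitness is the background-corrected optical density at entry into stationary phase divided by the robust mean of the no-drug control wells. This ratio is capped at 1.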

B. subtilis 168 [2] = test: Bliss interaction score (quartile over a dose matrix) (fitness difference); higher = more antagonism (negative = synergy)
In short: (§2)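 Fitness was derived from optical density at entry into stationary phase, divided by the robust mean of the no-drug wells on the same plate. That reading was taken as OD595, and the ratio was capped at 1. Single-drug fitness was inferred from the combination data. The Bliss score, observed fitness minus the expected product of single-drug fitness, was summarised as quartiles over technical, biological and donor/recipient replicates.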

S. aureus DSM 20231 [3] = test: as above
In short: as §2

S. aureus Newman [4] = test: as above
In short: as §2

S. pneumoniae D39V [5] = test: as above
In short: as §2

B. subtilis 168 [6] = test: fitness (endpoint OD595 vs no drug) (fraction); higher = more growth
In short: as §1

S. aureus Newman [7] = test: as above
In short: as §1

S. pneumoniae D39V [8] = test: as above
In short: as §1
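Throughout, for Bliss interaction score (quartile over a dose matrix): first quartile when negative (synergy) and third quartile when positive (antagonism).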

CC(=O)NC[C@H]1CN(c2ccc(N3CCOCC3)c(F)c2)C(=O)O1 [Linezolid] + CCCCCCCCCC(=O)N[C@@H]1[C@H]([C@@H]([C@H](O[C@H]1OC2=C3C=C4C=C2OC5=C(C=C(C=C5)[C@H]([C@H]6C(=O)N[C@@H](C7=C(C(=CC(=C7)O)OC8[C@H]([C@H]([C@@H]([C@H](O8)CO)O)O)O)C9=C(C=CC(=C9)[C@H](C(=O)N6)NC(=O)[C@@H]4NC(=O)[C@@H]1C2=CC(=CC(=C2)OC2=C(C=CC(=C2)[C@H](C(=O)N[C@H](CC2=CC(=C(O3)C=C2)Cl)C(=O)N1)N)O)O)O)C(=O)O)O[C@H]1[C@@H]([C@H]([C@@H]([C@H](O1)CO)O)O)NC(=O)C)Cl)CO)O)O [Teicoplanin]
fitness, S. aureus DSM 20231 [1], main component drawn
Conditions | first compound 0.125 µg/mL | first compound 0.25 µg/mL | first compound 0.5 µg/mL
partner 0.1562 µg/mL | 0.852 | 0.649 | 0.158
partner 0.3125 µg/mL | 0.989 | – | –
partner 0.625 µg/mL | ≥ 1 | – | –

S. aureus DSM 20231 [1], first compound 1 µg/mL, one replicate, main component drawn
Conditions | fitness
partner 0.1562 µg/mL | 0.0359
partner 0.3125 µg/mL | 0.0319
partner 0.625 µg/mL | 0.0292

main component drawn
Conditions | Bliss interaction score
B. subtilis 168 [2] | -0.0585
S. aureus DSM 20231 [3] | 0.109
S. aureus Newman [4] | 0.116
S. pneumoniae D39V [5] | -0.0593

CC(=O)NC[C@H]1CN(c2ccc(N3CCOCC3)c(F)c2)C(=O)O1 [Linezolid] + COc1cc(Cc2cnc(N)nc2N)cc(OC)c1OC [Trimethoprim]
one replicate
Conditions | fitness
B. subtilis 168 [6], first compound 0.0625 µg/mL, partner 0.125 µg/mL | 0.455
B. subtilis 168 [6], first compound 0.0625 µg/mL, partner 0.25 µg/mL | 0.379
B. subtilis 168 [6], first compound 0.0625 µg/mL, partner 0.5 µg/mL | 0.365
B. subtilis 168 [6], first compound 0.125 µg/mL, partner 0.1 µg/mL | 0.661
B. subtilis 168 [6], first compound 0.125 µg/mL, partner 0.2 µg/mL | 0.51
B. subtilis 168 [6], first compound 0.125 µg/mL, partner 0.4 µg/mL | 0.458
B. subtilis 168 [6], first compound 0.125 µg/mL, partner 1 µg/mL | 0.338
B. subtilis 168 [6], first compound 0.125 µg/mL, partner 2 µg/mL | 0.252
B. subtilis 168 [6], first compound 0.25 µg/mL, partner 0.1 µg/mL | 0.224
B. subtilis 168 [6], first compound 0.25 µg/mL, partner 0.2 µg/mL | 0.137
B. subtilis 168 [6], first compound 0.25 µg/mL, partner 0.4 µg/mL | 0.0855
B. subtilis 168 [6], first compound 0.25 µg/mL, partner 1 µg/mL | 0.0539
B. subtilis 168 [6], first compound 0.25 µg/mL, partner 2 µg/mL | 0.0332
B. subtilis 168 [6], first compound 0.5 µg/mL, partner 0.1 µg/mL | 0.0326
B. subtilis 168 [6], first compound 0.5 µg/mL, partner 0.125 µg/mL | 0.0335
B. subtilis 168 [6], first compound 0.5 µg/mL, partner 0.2 µg/mL | 0.0707
B. subtilis 168 [6], first compound 0.5 µg/mL, partner 0.4 µg/mL | 0.034
B. subtilis 168 [6], first compound 0.5 µg/mL, partner 1 µg/mL | 0.0459
B. subtilis 168 [6], first compound 0.5 µg/mL, partner 2 µg/mL | 0.0328
S. aureus DSM 20231 [1], first compound 0.125 µg/mL, partner 0.125 µg/mL | 0.693
S. aureus DSM 20231 [1], first compound 1 µg/mL, partner 0.125 µg/mL | 0.0426
S. aureus DSM 20231 [1], first compound 1 µg/mL, partner 0.25 µg/mL | 0.0292
S. aureus DSM 20231 [1], first compound 1 µg/mL, partner 0.5 µg/mL | 0.0293

fitness
Conditions | partner 0.125 µg/mL | partner 0.25 µg/mL | partner 0.5 µg/mL | partner 1 µg/mL
B. subtilis 168 [6], first compound 0.125 µg/mL | 0.481 | – | – | –
B. subtilis 168 [6], first compound 0.25 µg/mL | 0.178 | 0.239 | 0.149 | –
B. subtilis 168 [6], first compound 0.5 µg/mL | – | 0.0539 | 0.0519 | –
S. aureus DSM 20231 [1], first compound 0.125 µg/mL | – | 0.7 | 0.54 | 0.0522
S. aureus DSM 20231 [1], first compound 0.25 µg/mL | 0.511 | 0.566 | 0.462 | 0.118
S. aureus DSM 20231 [1], first compound 0.5 µg/mL | 0.157 | 0.153 | 0.139 | 0.115

Conditions | Bliss interaction score
B. subtilis 168 [2] | 0.0503
S. aureus DSM 20231 [3] | 0.129
S. aureus Newman [4] | 0.096
S. pneumoniae D39V [5] | -0.161

CN[C@@H]1[C@H](O)[C@H](NC)[C@H]2O[C@@]3(O)C(=O)C[C@@H](C)O[C@H]3O[C@@H]2[C@H]1O [Spectinomycin] + CN(C)c1cc(NC(=O)CNC(C)(C)C)c(O)c2c1C[C@H]1C[C@H]3[C@H](N(C)C)C(O)=C(C(N)=O)C(=O)[C@@]3(O)C(O)=C1C2=O [Tigecycline]
fitness
Conditions | first compound 2 µg/mL | first compound 4 µg/mL | first compound 8 µg/mL | first compound 16 µg/mL
B. subtilis 168 [6], partner 0.039 µg/mL | 0.976 | ≥ 1 | 0.978 | –
B. subtilis 168 [6], partner 0.078 µg/mL | 0.959 | 0.968 | 0.927 | –
B. subtilis 168 [6], partner 0.156 µg/mL | 1 | ≥ 1 | 0.889 | –
S. aureus Newman [7], partner 0.039 µg/mL | – | 0.912 | 0.918 | 0.904
S. aureus Newman [7], partner 0.078 µg/mL | – | 0.954 | 0.928 | 0.908
S. aureus Newman [7], partner 0.156 µg/mL | – | 0.938 | 0.961 | 0.929
S. pneumoniae D39V [8], partner 0.65 µg/mL | – | 0.951 | 0.896 | 0.747
S. pneumoniae D39V [8], partner 1.3 µg/mL | – | 0.981 | 0.905 | 0.788
S. pneumoniae D39V [8], partner 2.6 µg/mL | – | 0.941 | 0.896 | 0.761

fitness, one replicate
Conditions | partner 0.039 µg/mL | partner 0.078 µg/mL | partner 0.125 µg/mL | partner 0.156 µg/mL | partner 0.25 µg/mL | partner 0.5 µg/mL
B. subtilis 168 [6], first compound 2 µg/mL | – | – | ≥ 1 | – | 0.994 | 0.937
B. subtilis 168 [6], first compound 4 µg/mL | – | – | ≥ 1 | – | 0.944 | ≥ 1
B. subtilis 168 [6], first compound 8 µg/mL | – | – | 0.941 | – | 0.931 | ≥ 1
S. aureus Newman [7], first compound 32 µg/mL | 0.592 | 0.585 | – | 0.603 | – | –
S. aureus Newman [7], first compound 64 µg/mL | 0.105 | 0.0894 | – | 0.1 | – | –

Conditions | Bliss interaction score
B. subtilis 168 [2] | 0.043
S. aureus DSM 20231 [3] | -0.0602
S. aureus Newman [4] | 0.0622
S. pneumoniae D39V [5] | 0.0451
